Source: patent US5585385A, “Heterocyclic compounds, their production and use as tachykinin reactor antagonists” (Takeda Chemical Industries, Ltd., priority 1993, dated 1996)

Molecular target: T1, substance P receptor (Homo sapiens, UniProt P25103)
T1 construct: The receptor was prepared from human lymphoblast cells (IM-9); endogenous in cells; host or cells: IM-9 human lymphoblast cells (crude membrane preparation)
Test: Radioligand receptor binding inhibitory activity using receptor from human lymphoblast cells (IM-9), 125I-BHSP
Conditions: human IM-9 cell receptor, 25° C., 30 minutes, pH 7.4, n=1
Procedure: Radioligand receptor binding inhibitory activity
Binding inhibitory activity using receptor from human lymphoblast cells (IM-9)
The method of A. Margaret "Molecular Pharmacology 42, p.458 (1992)" was modified and used. The receptor was prepared from human lymphoblast cells (IM-9). IM-9 cells (2×10^5 cells/ml) were inoculated and incubated for 3 days (one liter), which was then subjected to centrifuge for 5 minutes at 500×g to obtain cell pellets. The pellets were washed once with phosphate buffer (Flow Laboratories, CAT. No. 28-103-05), which were then crushed using Polytron.homogenizer "Kinematika, Germany" in 30 ml of 50 mM Tris-HCl buffer (pH 7.4) containing 120 mM sodium chloride, 5 mM potassium chloride, 2 μg/ml chymostatin, 40 μg/ml bacitracin, 5 μg/ml phosphoramidon, 0.5 mM phenylmethyl sulfonyl fluoride, 1 mM ethylenediamine tetra-acetic acid, which was subjected to centrifuge at 40,000×g for 20 minutes. The residue was washed twice with 30 ml of the above-mentioned buffer, which was then preserved frozen (-80° C.) as a specimen of the receptor.
The specimen was suspended in a reaction buffer (50 mM Tri-HCl buffer (pH 7.4), 0.02% bovine serum albumin, 1 mM phenylmethylsulfonyl fluoride, 2 μg/chymostatin, 40 μg/ml bacitracin, 3 mM manganese chloride) and 100 ul portion was the suspension was used in the reaction. After addition of the sample and ^125 I-BHSP (0.46 KBq), the reaction was allowed to proceed in 0.2 ml of reaction buffer at 25° C. for 30 minutes. The amount of nonspecific binding was determined by adding substance P at a final concentration of 2×10^-6 M. After the reaction, using a cell harvester (290 PHD, Cambridge Technology, Inc, U.S.A.), rapid filtration was carried out through a glass filter (GF/B, Whatman, U.S.A.) to stop the reaction. After washing three times with 250 ul of 50 mM of Tris-HCl buffer (pH 7.4) containing 0.02% bovine serum albumin, the radioactivity remaining on the filter was determined with a gamma counter. Before use, the filter was immersed in 0.1% polyethyleneimine for 24 hours and air-dried. […] (Radioligand means substance P labelled with ^125 I.) The number of this experiment is one.

T1 sequence (P25103 whole entry): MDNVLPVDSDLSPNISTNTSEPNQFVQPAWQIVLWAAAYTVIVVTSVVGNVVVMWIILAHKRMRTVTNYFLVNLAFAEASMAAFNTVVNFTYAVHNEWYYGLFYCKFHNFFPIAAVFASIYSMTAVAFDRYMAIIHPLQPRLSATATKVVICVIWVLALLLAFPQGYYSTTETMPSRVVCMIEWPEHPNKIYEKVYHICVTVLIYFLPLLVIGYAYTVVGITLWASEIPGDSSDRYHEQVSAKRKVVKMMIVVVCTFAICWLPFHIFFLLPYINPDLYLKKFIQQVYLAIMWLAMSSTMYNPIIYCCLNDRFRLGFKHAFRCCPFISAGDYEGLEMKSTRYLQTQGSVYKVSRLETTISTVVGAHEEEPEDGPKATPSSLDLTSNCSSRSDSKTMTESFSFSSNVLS

| Molecule | IC50 [nM] |
| --- | --- |
| CN(Cc1cc(C(F)(F)F)cc(C(F)(F)F)c1)C(=O)c1c(-c2ccccc2)c2c(c(=O)n1C)CCCN2 [Example 51] | 2.1 |
| CN(Cc1cc(C(F)(F)F)cc(C(F)(F)F)c1)C(=O)c1c(-c2ccc(F)cc2)c2c(c(=O)n1C)CCCN2C [Example 28, N-[3,5-Bis(trifluoromethyl)benzyl]-8-(4-fluorophenyl)-1,2,3,4,5,6-hexahydro-N, 1,6-trimethyl-5-oxo-7-pyrido [4,3-b]pyridinecarboxamide] | 5 |
| COc1ccccc1CN(C)C(=O)c1c(-c2ccc(F)cc2)c2cccnc2c(=O)n1C [Example 4, 5-(4-Fluorophenyl)-7,8-dihydro-N-(2-methoxybenzyl)-N,7-dimethyl-8-oxo-6-pyrido[3,4-b]pyridinecarboxamide] | 2.5 |
| CN(Cc1cc(C(F)(F)F)cc(C(F)(F)F)c1)C(=O)c1c(-c2ccc(F)cc2)c2cc(Cl)cnc2c(=O)n1C [Example 6, N-[3,5-Bis(trifluoromethyl)benzyl]-3-chloro-5-(4-fluorophenyl)-7,8-dihydro-N, 7-dimethyl-8-oxo-6-pyrido[3,4-b]pyridinecarboxamide] | 1.1 |
| CN1CCc2c(c(-c3ccc(F)cc3)c(C(=O)N(C)Cc3cc(C(F)(F)F)cc(C(F)(F)F)c3)n(C)c2=O)C1 [Example 34, N-[3,5-Bis(trifluoromethyl)benzyl]-4-(4-fluorophenyl)-1,2,5,6,7,8-hexahydro-N,2,6-trimethyl-1-oxo-3-pyrido [4,3-c]pyridinecarboxamide] | 2.1 |
| Cc1ccccc1-c1c(C(=O)N(C)Cc2cc(C(F)(F)F)cc(C(F)(F)F)c2)n(C)c(=O)c2cccnc12 [Example 10, N-[3,5-Bis(trifluoromethyl)benzyl]-5,6-dihydro-N, 6-dimethyl-8-(2-methylphenyl)-5-oxo-7-pyrido[4,3-b]pyridinecarboxamide] | 33 |
| CN(Cc1cc(C(F)(F)F)cc(C(F)(F)F)c1)C(=O)c1c(-c2ccc(F)cc2)c2ncsc2c(=O)n1C [Example 40, N-[3,5-Bis(trifluoromethyl)benzyl]-7-(4-fluorophenyl)-4,5-dihydro-N, 5-dimethyl-4-oxo-6-thiazolo[5,4-c]pyridinecarboxamide] | 1.8 |
| CN(Cc1cc(C(F)(F)F)cc(C(F)(F)F)c1)C(=O)c1cnc2ccccc2c1-c1ccccn1 [Example 12, N-[3,5-Bis(trifluoromethyl)benzyl]-N-methyl-4-(2-pyridyl)-3-quinolinecarboxamide] | 2.8 |
| CN(Cc1cc(C(F)(F)F)cc(C(F)(F)F)c1)C(=O)c1c(-c2ccc(F)cc2)c2c[n+](C)ccc2c(=O)n1C [Example 33, 3-[N-[3,5-Bis(trifluoromethyl)benzyl]-N-methylaminocarbonyl]-4-(4-fluorophenyl)-1,2-dihydro-2,6-dimethyl-1-oxopyrido[4,3-c]pyridinium iodide] | 16 |
| COc1ccccc1CNC(=O)c1c(-c2ccc(F)cc2)c2cccnc2c(=O)n1C [Example 3, 5-(4-Fluorophenyl)-7,8-dihydro-N-(2-methoxybenzyl)-7-methyl-8-oxo-6-pyrido[3,4-b]pyridinecarboxamide] | 14 |
| COc1ccccc1CN(C)C(=O)c1c(-c2ccccc2)c2ccsc2c(=O)n1C [Example 46, 6,7-Dihydro-N-(2-methoxybenzyl)-N, 6-dimethyl-7-oxo-4-phenyl-5-thieno[2,3-c]pyridinecarboxamide] | 26 |
| CN(Cc1cc(C(F)(F)F)cc(C(F)(F)F)c1)C(=O)c1c(-c2ccccc2)c2scnc2c(=O)n1C [Example 43, N-[3,5-Bis(trifluoromethyl)benzyl]-4,5-dihydro-N, 5-dimethyl-4-oxo-7-phenyl-6-thiazolo[4,5-c]pyridinecarboxamide] | 1 |
| CN(Cc1cc(C(F)(F)F)cc(C(F)(F)F)c1)C(=O)c1c(-c2ccc(F)cc2)c2cnccc2c(=O)n1C [Example 9, N-[3,5-Bis(trifluoromethyl)benzyl]-4-(4-fluorophenyl)-1,2-dihydro-N, 2-dimethyl-1-oxo-3-pyrido[4,3-c]pyridine carboxamide] | 1.2 |
| CN(Cc1cc(C(F)(F)F)cc(C(F)(F)F)c1)C(=O)c1c(-c2cccs2)c2ccccc2c(=O)n1C [Example 21, N[3,5-Bis(trifluoromethyl)benzyl]-1,2-dihydro-N, 2-dimethyl-1-oxo-4-(2-thienyl)-3-isoquinolinecarboxamide] | 2.5 |

Stronger by IC50, values ahead:

| IC50 [nM] | Molecule |
| --- | --- |
| 0.94 | CN(Cc1cc(C(F)(F)F)cc(C(F)(F)F)c1)C(=O)c1c(-c2ccc(F)cc2)c2ncccc2c(=O)n1C [Example 19, N-[3,5-Bis(trifluoromethyl)benzyl]-8-(4-fluorophenyl)-5,6-dihydro-N, 6-dimethyl-5-oxo-7-pyrido[4,3-b]pyridine carboxamide] |
| 0.7 | CN(Cc1cc(C(F)(F)F)cc(C(F)(F)F)c1)C(=O)c1c(-c2ccccc2)c2c(c(=O)n1C)NCCC2 [Example 55, N-[3,5-Bis(trifluoromethyl)benzyl]-1,2,3,4,7,8-hexahydro-5-phenyl-N,7-dimethyl-8-oxo-6-pyrido[3,4-b]pyridinecarboxamide] |
| 0.62 | CN(Cc1cc(C(F)(F)F)cc(C(F)(F)F)c1)C(=O)c1c(-c2ccccc2)c2ccncc2c(=O)n1C [Example 37, N-[3,5-Bis(trifluoromethyl)benzyl]-1,2-dihydro-N, 2-dimethyl-1-oxo-4-phenyl-3-pyrido[3,4-c]pyridinecarboxamide] |
| 0.6 | CN(Cc1cc(C(F)(F)F)cc(C(F)(F)F)c1)C(=O)c1c(-c2ccc(F)cc2)c2ccc[n+](C)c2c(=O)n1C [Example 29, 6-[N-[3,5-Bis(trifluoromethyl)benzyl]-N-methylaminocarbonyl]-5-(4-fluorophenyl)-7,8-dihydro-1,7-dimethyl-8-oxopyrido[3,4-b]pyridinium iodide] |
| 0.36 | CN(Cc1cc(C(F)(F)F)cc(C(F)(F)F)c1)C(=O)c1c(-c2ccc(F)cc2)c2cscc2c(=O)n1C [Example 18, N-[3,5-Bis(trifluoromethyl)benzyl]-7-(4-fluorophenyl)-4,5-dihydro-N, 5-dimethyl-4-oxo-6-thieno[3,4-c]pyridine carboxamide] |
| 0.35 | CN(Cc1cc(C(F)(F)F)cc(C(F)(F)F)c1)C(=O)c1c(-c2ccc(F)cc2)c2ccc(=O)n(C)c2c(=O)n1C [Example 35, N-[3,5-Bis(trifluoromethyl)benzyl]-5-(4-fluorophenyl)-1,2,7,8-tetrahydro-N,1,7-trimethyl-2,8-dioxo-6-pyrido [3,4-b]pyridinecarboxamide] |
| 0.33 | CN(Cc1cc(C(F)(F)F)cc(C(F)(F)F)c1)C(=O)c1c(-c2ccc(F)cc2)c2cc[n+](C)cc2c(=O)n1C [Example 31, 3-[N-[3,5-Bis(trifluoromethyl)benzyl]-N-methylaminocarbonyl]-4-(4-fluorophenyl)-1,2-dihydro-2,7-dimethyl-1-oxopyrido[3,4-c]pyridinium iodide] |
| 0.24 | CN(Cc1cc(C(F)(F)F)cc(C(F)(F)F)c1)C(=O)c1c(-c2ccccc2)c2ccsc2c(=O)n1C [Example 44, N-[3,5-bis(trifluoromethyl)benzyl]-6,7-dihydro-N, 6-dimethyl-7-oxo-4-phenyl-5-thieno[2,3-c]pyridinecarboxamide] |
| 0.2 | CN(Cc1cc(C(F)(F)F)cc(C(F)(F)F)c1)C(=O)c1cnc2sccc2c1-c1ccc(F)cc1 [Example 24, N[3,5-Bis(trifluoromethyl)benzyl]-4-(4-fluorophenyl)-N-methyl-5-thieno[2,3-b]pyridinecarboxamide] |
| 0.2 | Cc1ccccc1-c1c(C(=O)N(C)Cc2cc(C(F)(F)F)cc(C(F)(F)F)c2)n(C)c(=O)c2sccc12 [Example 47, N-[3,5-Bis(trifluoromethyl)benzyl]-6,7-dihydro-N, 6-dimethyl-4-(2-methylphenyl)-7-oxo-5-thieno[2,3-c]pyridinecarboxamide] |
| 0.2 | N-[3,5-Bis(trifluoromethyl)benzyl]-5-(chloro-2-methylphenyl)-7,8-dihydro-N,7-dimethyl-8-oxo-6-pyrido[3,4-b]pyridinecarboxamide and its isomer [Example 11] |
| 0.1 | CN(Cc1cc(C(F)(F)F)cc(C(F)(F)F)c1)C(=O)c1c(-c2ccc(F)cc2)c2c(c(=O)n1C)N(C)CCC2 [Example 30, N-[3,5-Bis(trifluoromethyl)benzyl]-5-(4-fluorophenyl)-1,2,3,4,7,8-hexahydro-N, 1,7-trimethyl-8-oxo-6-pyrido [3,4-b]pyridinecarboxamide] |
| 0.048 | CN1CCc2c(-c3ccc(F)cc3)c(C(=O)N(C)Cc3cc(C(F)(F)F)cc(C(F)(F)F)c3)n(C)c(=O)c2C1 [Example 32, N-[3,5-Bis(trifluoromethyl)benzyl]-4-(4-fluorophenyl)-1,2,5,6,7,8-hexahydro-N,2,7-trimethyl-1-oxo-3-pyrido[3,4-c]pyridinecarboxamide] |
